Results reported in patent US9422238B2, “ICMT inhibitors” (National University of Singapore, priority 2012, dated 2016).
In brackets after ≈: the same amount, converted by molar mass. Like-named read-outs stand apart in the source and are kept apart here.

Tests used:
physchem = settings: for solubility at 24 h: 25 °C; for solubility at 24 h / solubility at 3 h: pH 7.4, aqueous buffer, kinetic from dmso stock
Procedure: The turbid solution was delivered to the filter plate, agitated for a specific time period and then filtered. The concentration of dissolved compound in the filtrate was determined by uv spectroscopy and referred to pre-constructed calibration curves for solubility determination.
(§1) Determination of aqueous solubility was carried out on Multiscreen® Solubility filter plates (Millipore-MSSLBPC10) from Millipore Corporation (MA, USA). The protocol (PC2445EN00, Millipore Corporation) was followed. Briefly, various concentrations of the test compound were prepared in Universal buffer (pH 7.4)/acetonitrile/DMSO. The UV absorbances of these solutions were obtained at a pre-determined wavelength and used to construct a calibration curve for the test compound. Next, a stock solution of the test compound in DMSO was prepared at a known concentration, diluted with Universal buffer (pH 7.4), dispensed into wells in the Multiscreen Solubility filter plate, and agitated for a period of time. The suspension is then filtered, the filtrate collected and diluted with acetonitrile to give the same solvent composition used to prepare the calibration solutions. The absorbance of the diluted filtrate was then read at the predetermined wavelength and the concentration of the filtrate (taken here to be equivalent to the solubility of the test compound) was determined from the calibration curve.
as §1, with “24 hours at room temperature (25 deg C.). […]” for “a period of time.”, “was” for “is then”, “was” for “was then”, “(equivalent” for “(taken here to be equivalent”, “curve. […] LCMS determinations were made on an Agilent 1200 Series HPLC linked to a AB Sciex Instruments 3200 Q TRAP LC/MS/MS. Separations were carried out on a Phenomenex Luna column [3u, C18(2), 100A, 5×4.6 mm]. […] Quantification was based on the ratio of peak areas of the daughter ion and the mother ion (M+H), normalized against the same ratio obtained for the internal standard. The solubility determinations were carried out in triplicates or more from two different stock solutions.” for “curve.”

[1] = tested on: MDA-MB-231 human breast cells; settings: earlier study; read-out: IC50 MDA-MB-231, previous value; cited from earlier work
[2] = tested on: PC3 Prostrate cancer cells; test: Antiproliferative activity / cell viability (MTS, 72 h); type: cell-based, human; settings: Homo sapiens
Procedure: (§4) The relative number of the live cells was determined using the CellTiter® 96 AQueous One Solution Cell Proliferation Assay (Promega). Determinations were made in duplicates or triplicates.

[3] = tested on: Human lung fibroblast IMR90 cells; test: Cell viability on non-malignant cells (MTS, 72 h); type: cell-based
Procedure: (§2) Cell viability was determined from the expression:
(§3) The plot was constrained to ≧0 and ≦100%.
Human lung fibroblast IMR90 cells were purchased from ATCC (Rockville, Md.) and grown in Eagle's Minimal Essential Media (EMEM, Sigma Aldrich, Singapore) at 37° C., 5% CO2. […] Seeding density was maintained at 4000 cells per well.

[4] = tested on: MDA-MB-231 human breast cells; test: Antiproliferative activity / cell viability (MTS, 72 h); settings: Homo sapiens
Procedure: as §4
Human breast cancer MDA-MB231, liver cancer HepG2 and lung fibroblast cells were purchased from ATCC (Rockville, Md.). MDA-MB231 cells and IMR-90 cells were grown in DMEM (Sigma Aldrich, Singapore) and EMEM (Sigma Aldrich, Singapore) respectively at 37° C., 5% CO2. DMEM was supplemented with 10% fetal bovine serum (Invitrogen, heat treated at 65 deg C., 30 min), 50 units/L penicillin-G and 50 μg/mL streptomycin. EMEM was supplemented with 10% fetal bovine serum (heat treated as above), 100 mg/L penicillin-G and 100 μg/mL streptomycin.
Cell viability was assessed using CellTitre 96® Aqueous One Solution (Promega, Madison, Wis.) containing the tetrazolium salt 3-(4,5-dimethylthiazol-2-yl)-5-(3-carboxymethoxyphenyl)-2-(4-sulfophenyl)-2H-tetrazolium (MTS). […] Final concentration of DMSO per well was maintained at 0.5% v/v. […] Cell viability was determined from the expression:
The plot was constrained to ≧0 and ≦100%. At least 3 independent determinations of IC50 were made using two different stock solutions of test compound.

[5] = target: T1, Isoprenylcysteine carboxyl methyltransferase (Icmt) (Homo sapiens, UniProt O60725); test: Icmt inhibition, scintillation proximity assay with BFC and [3H]SAM; type: biochemical
T1 construct: made in house; host or cells: Sf9 (Spodoptera frugiperda) insect cells; membrane preparation provided by Prof PJ Casey (Duke University / Duke-NUS)
Procedure: Isoprenylcysteine carboxyl methyltransferase (Icmt) was provided by Prof PJ Casey of Duke University, NC. S-Adenosylmethionine (SAM), magnesium chloride Hexahydrate (MgCl2), tartrazine, 4-(2-hydroxyethyl)-1-piperazineethanesulfonic acid (HEPES), dimethyl sulfoxide (DMSO) and dithiotreitol (DTT) were purchased from Sigma (Mo, USA). [^3H] S-Adenosylmethionine, [^3H] Biotin and Streptavidin PVT SPA Beads were purchased from PerkinElmer (Waltham, Mass.). Assays were performed in black small volume 384 well microtitre plates from PerkinElmer.
Stocks of Icmt membrane protein (30 μg/μL) stored at −80° C. were thawed at 37° C. and placed on ice. The Icmt membrane protein was diluted in assay buffer (70 mM HEPES, 100 mM NaCl, 5 mM Mg Cl2 and 3 mM DTT, pH 7.5) to a 0.03 μg/μL working concentration and added to the wells of a microtitre plate (5 μl/well). To each wells 20 μl of the reaction buffer was added. The reaction was initiated with the addition of 5 μL of substrate solution containing BFC (6 μM), SAM (3 μM) and 30 μCi/mL [^3H] SAM (all of these reagents were stored at −20° C., SAM reagents thawed on ice, BFC thawed at RT). The plate was incubated at 37° C. for 30 minutes. The reaction was stopped with the addition of 15 μL of stop solution containing SAM (150 μM) and Streptavidin SPA beads (20 mg/mL). Following overnight incubation at ambient temperature radioactivity was counted on a Microbeta Trilux™ (Perkin Elmer, Turku, Finland).
Sf9 (Spodoptera frugiperda ovarian) membranes containing recombinant Icmt were provided by Prof PJ Casey (Duke University, NC and Duke-NUS Graduate Medical School). S-Adenosylmethionine (SAM), magnesium chloride hexahydrate, tartrazine, 4-(2-hydroxyethyl)-1-piperazineethanesulfonic acid (HEPES) and dithiotreitol (DTT) were purchased from Sigma (Mo, USA). [^3H] S-Adenosylmethionine, [^3H] biotin and streptavidin PVT SPA Beads were purchased from PerkinElmer (Waltham, Mass.). Biotinylated farnesylcysteine was synthesized as described in an earlier report. Assays were performed in black 384-well microtitre plates from PerkinElmer.
A vial of Icmt membrane protein (30 μg/μL) stored at −80° C. was thawed at 37° C. and placed on ice. The protein was diluted in assay buffer (70 mM HEPES, 100 mM NaCl, 5 mM MgCl2, 3 mM DTT, pH 7.5) to 0.03 μg/μL and aliquots were added to each well (5 μL/well), followed by 20 μL of the assay buffer. The reaction was initiated by adding 5 μL of a solution containing biotinylated BFC (6 μM), SAM (3 μM) and 30 μCi/mL [^3H] SAM. These reagents were stored at −20° C. and thawed on ice (SAM, [^3H] SAM) or at room temperature (BFC). The plate was incubated at 37° C. for 30 minutes after which the reaction was quenched by adding 15 μL of a solution comprising SAM (150 μM) and streptavidin SPA beads (20 mg/mL). After overnight incubation at ambient temperature, radioactivity was counted (Microbeta Trilux™, Perkin Elmer, Turku, Finland). The degree of inhibition was assessed from the radioactivity obtained in presence of test compound compared to that obtained from the control sample […]. Two independent determinations were made for each test compound.

[6] = tested on: Human hepatocellular carcinoma HepG2 cells; test: Cell viability (MTS, 72 h); type: cell-based; settings: HepG2, Table 6, mean (SD), read-out: IC50 (μM) HepG2
Procedure: as §2, §3
Human hepatocellular carcinoma HepG2 and human pancreatic cancer MIA PACA II cells were obtained from ATCC (Rockville, Md.). They were grown in DMEM (high glucose, Invitrogen) supplemented with 10% FBS, 50 μg/mL penicillin and 50 μg/mL streptomycin, 37° C., 5% CO2 until they reached 80-90% confluency, after which they were subcultured. Passage numbers were kept within 7-14 passages for both cell types.

[7] = Aggregation tendency by dynamic light scattering (DLS); type: physicochemical; settings: for DLS count rate (kcps): 1% DMSO, potassium phosphate buffer 5 mM pH 7.4
Procedure: Stock solutions (10 mM) of test compounds prepared in DMSO, diluted to 1 mM with DMSO and then serially diluted with potassium phosphate buffer (5 mM, pH 7.4, prefiltered before use) to give final concentrations of 1 μM and 10 μM. Final concentration of DMSO was 1% v/v. Measurements were carried out on the Malvern Instrument Zetasizer Nano ZS system equipped with a 4 mW He—Ne laser at 633 nm and detector angle of 90°. Three or more determinations of derived count rates (kilocounts per second, kcps) were obtained from each concentration of test compound, using two separately prepared stock solutions. Data collection was carried out using the software supplied with the instrument. Results are represented as mean±standard deviation. The positive control was benzyl benzoate (250 μM) which gave a count rate of 1180 kcps (±35). The vehicle (phosphate buffer, 1% DMSO) gave a reading of 14.9±0.4.

[8] = Parallel Artificial Membrane Permeability Assay (PAMPA); settings: 500 uM stock, similar conditions
Procedure: Briefly, determinations were carried out on MultiScreen-IP PAMPA assay (donor) plates (MAIPNTR10) and MultiScreen Receiver Plates (MATRNPS50) from Millipore Corporation (USA) with 1% lecithin (L-α-phosphatidylcholine from lyophilized powder of egg yolk, Sigma Aldrich, USA) in dodecane (ReagentPlus®, Sigma Aldrich, USA) as lipid barrier. 5 μL of 1% lecithin in dodecane was dispensed into the wells of the donor plates. […] The mobile phase was Milli-Q water (0.1% formic acid) and acetonitrile (0.1% formic acid), run on gradient.
Pe was obtained from Equation 1:
[formula] Where VA and VD are the volumes of acceptor (cm^3) and donor (cm^3) wells respectively, A is the area of the surface area of the membrane (0.24 cm^2), t is the permeation time (s); S is the fraction of sample remaining in the donor and acceptor wells after permeation time and is determined from Equation 2, CA and CD are the concentrations (μM) of test/reference compound in acceptor and donor wells respectively.
The Pe of each compound was obtained from at least 3 separate experiments using no less than 2 different stock solutions. For each independent determination, triplicates (3 wells) were run for each compound.

[9] = PC-3M, Table 3, 72 h, mean (SD), read-out: IC50 PC3
[10] = Table 6, from earlier table, read-out: IC50 (μM) PC3
[11] = IMR-90, Table 6, mean (SD), read-out: IC50 (μM) IMR90
[12] = MDA-MB-231, 72 h, read-out: IC50MDA-MB-231 (μM)
[13] = MDA-MB-231, read-out: IC50 (μM) MDA MB 231
[14] = Table 3, mean of two or more determinations (SD), read-out: IC50 Icmt
[15] = IMR-90, further testing, 72 h, mean (SD), read-out: IC50 IMR90
[16] = MDA-MB-231, 72 h, read-out: IC50 MDA-MB-231 (μM)

T1 sequence (O60725 whole entry, species assumed): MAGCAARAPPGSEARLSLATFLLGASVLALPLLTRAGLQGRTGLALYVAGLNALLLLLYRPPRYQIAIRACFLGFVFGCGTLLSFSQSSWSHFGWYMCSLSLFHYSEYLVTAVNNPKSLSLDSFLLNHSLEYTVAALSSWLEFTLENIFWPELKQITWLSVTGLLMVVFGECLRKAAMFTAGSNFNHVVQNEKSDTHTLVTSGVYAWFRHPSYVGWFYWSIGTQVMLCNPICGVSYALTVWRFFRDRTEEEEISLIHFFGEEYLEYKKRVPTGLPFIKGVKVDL

| solubility at 24 h (physchem) | Structure (SMILES) | solubility at 3 h (physchem) | IC50 [2, 9] | IC50 [4, 12] | IC50 [4, 13] | IC50 [5, 14] | IC50 [6] | other results |
| --- | --- | --- | --- | --- | --- | --- | --- | --- |
| 24.9 µM (≈ 10.8 µg/mL) | CCCCCCCCn1cc(CN(CC)CC)c2cc(-c3cnc(N(C)C)nc3)ccc21 | 25.3 µM (≈ 11 µg/mL) |  |  |  |  |  |  |
|  | CCCCCCCCn1cc(CN(CC)CC)c2cc(-c3cccnc3)ccc21 [Compound 8-7, Diethyl-(1-octyl-5-pyridin-3-yl-1H-indol-3ylmethyl)-amine] | 250 µM (≈ 97.8 µg/mL) | 5.84 µM | 5.5 µM |  | 1.75 µM |  | DLS count rate (kcps) ([7]; 1 μM): 16.8 kcps; DLS count rate (kcps) ([7]; 10 μM): 16.5 kcps; IC50 [3, 15]: 5.52 µM; IC50 [4, 16]: 6.01 µM; IC50 [5]: 1.8 µM; Aqueous Solubility (pH 7.4) 24 hours (physchem; 24 h, pH 7.4): 244.8 (9.7) μM; Solubility (μM) (physchem; 24 h, pH 7.4): 244.8 (9.7) μM |
|  | CCCCCCCCn1cc(CN(CC)CC)c2cc(-c3ccc(S(C)(=O)=O)cc3)ccc21 [Compound 8-10, Diethyl-[5(4-methanesulfonyl-phenyl)-1-octyl-1H-indol-3ylmethyl]-amine] |  | 4.74 µM | 5.56 µM | 5.56 µM | 1.72 µM | 3.44 µM | IC50 [2, 10]: 4.74 µM; IC50 [3, 11]: 5.52 µM |
| 272 µM (≈ 107 µg/mL) | CCCCCCCCn1cc(CN(CC)CC)c2cc(-c3cncnc3)ccc21 [Compound 8-15, Diethyl-(1-octyl-5-pyrimidin-5-yl-1H-indol-3ylmethyl)-amine] | 266 µM (≈ 105 µg/mL) | 8.32 µM | 9 µM |  | 1.58 µM |  | DLS count rate (kcps) ([7]; 1 μM): 20.4 kcps; DLS count rate (kcps) ([7]; 10 μM): 28.9 kcps; IC50 [3, 15]: 9.84 µM; IC50 [4, 16]: 13.2 µM; IC50 ([5]; further testing, mean (SD), read-out: IC50 Icmt): 1.6 µM; Solubility (μM) (physchem; 24 h, pH 7.4): 271.56 (6.63) μM |
|  | CCCCCCCCn1cc(CN(CC)CC)c2cc(-c3ccc(S(=O)(=O)NC)cc3)ccc21 [Compound 8-24, 4-(3-Diethylaminomethyl-1-octyl-1H-indol-5-yl)-N-methyl-benzensulfonamide] |  |  | 8.52 µM | 8.7 µM | 1.71 µM | 4.76 µM |  |
|  | O=C(OCc1ccccc1)c1ccccc1 [benzyl benzoate, reference compound] |  |  |  |  |  |  | DLS count rate ([7]; positive control, 250 μM): 1180 kcps |
|  | Cn1c(=O)c2c(ncn2C)n(C)c1=O [caffeine, reference compound] |  |  |  |  |  |  | Pe sequence of standard compounds [8]: verapamil>quinidine>caffeine |
|  | C=C[C@H]1C[N@@]2CC[C@H]1C[C@@H]2[C@@H](O)c1ccnc2ccc(OC)cc12 [quinidine, reference compound] |  |  |  |  |  |  | Pe sequence of standard compounds [8]: verapamil>quinidine>caffeine |

| Structure (SMILES) | solubility at 24 h (physchem) | solubility at 3 h (physchem) | IC50 [2, 9] | IC50 [4, 12] | IC50 [4, 13] | IC50 [5, 14] | IC50 [6] | other results |
| --- | --- | --- | --- | --- | --- | --- | --- | --- |
| CCCCCCCCn1cc(CN(CC)CC)c2cc(-c3cccc(C)c3)ccc21 [Compound 8-1] | < 1 µM | < 1 µM | 6.31 µM | 7.9 µM | 7.9 µM | 2.2 µM | 6.57 µM | IC50 [1]: 3.6 µM; IC50 [2, 10]: 6.31 µM; IC50 [3, 11]: 5.26 µM; IC50 ([5]; Table 3, mean of two or more determinations (SD), listed as 8.1, read-out: IC50 Icmt): 2.18 µM |
